Reference: PMC11419154 (bioRxiv, 2024)
“Also recorded” adds a separate entry of the source.

Legend:
Assay type in all cases: cell-based, Drosophila melanogaster
[1] = tested on: Pickpocket (ppk RNAi in cIV da neurons); experiment: Calcium imaging in cIV da neurons with ppk RNAi; conditions: versus attP genetic control; n = 6 neurons
[2] = tested on: Balboa (bba RNAi in cIV da neurons); experiment: Calcium imaging in cIV da neurons with bba RNAi; conditions: versus attP2 genetic control; n = 6 neurons
[3] = tested on: class III dendritic arborizing (cIII da) neurons; experiment: Confocal GCaMP6f calcium imaging in larval cIII da neurons; conditions: AITC application at time 0 s; n = 12 neurons
dTRPA1-D = experiment: Calcium imaging in cIII da neurons expressing dTRPA1-D; conditions: AITC application at time 0 s; n = 12 neurons
dTRPA1-C = experiment: Calcium imaging in cIII da neurons expressing dTRPA1-C; conditions: AITC application at time 0 s; n = 12 neurons

## C=CCN=C=S [AITC, allyl isothiocyanate]
[1]
  Calcium response with ppk RNAi, AITC: did not strongly affect their responses to AITC; also recorded: respond to AITC similarly as genetic controls
[2]
  Calcium response with bba RNAi, AITC: did not strongly affect their responses to AITC; also recorded: respond to AITC similarly as genetic controls
[3]
  Calcium response of cIII da neurons, AITC: do not activate strongly in response to AITC
dTRPA1-D
  Calcium response of cIII da neurons expressing dTRPA1-D, AITC: renders them responsive to AITC; also recorded: rendered them sensitive to AITC
dTRPA1-C
  Calcium response of cIII da neurons expressing dTRPA1-C, AITC: renders them responsive to AITC; also recorded: rendered them sensitive to AITC
